The target of the experiment is T1, aryl hydrocarbon receptor (AHR) (Homo sapiens, UniProt P35869).
T1 sequence (P35869 11-848): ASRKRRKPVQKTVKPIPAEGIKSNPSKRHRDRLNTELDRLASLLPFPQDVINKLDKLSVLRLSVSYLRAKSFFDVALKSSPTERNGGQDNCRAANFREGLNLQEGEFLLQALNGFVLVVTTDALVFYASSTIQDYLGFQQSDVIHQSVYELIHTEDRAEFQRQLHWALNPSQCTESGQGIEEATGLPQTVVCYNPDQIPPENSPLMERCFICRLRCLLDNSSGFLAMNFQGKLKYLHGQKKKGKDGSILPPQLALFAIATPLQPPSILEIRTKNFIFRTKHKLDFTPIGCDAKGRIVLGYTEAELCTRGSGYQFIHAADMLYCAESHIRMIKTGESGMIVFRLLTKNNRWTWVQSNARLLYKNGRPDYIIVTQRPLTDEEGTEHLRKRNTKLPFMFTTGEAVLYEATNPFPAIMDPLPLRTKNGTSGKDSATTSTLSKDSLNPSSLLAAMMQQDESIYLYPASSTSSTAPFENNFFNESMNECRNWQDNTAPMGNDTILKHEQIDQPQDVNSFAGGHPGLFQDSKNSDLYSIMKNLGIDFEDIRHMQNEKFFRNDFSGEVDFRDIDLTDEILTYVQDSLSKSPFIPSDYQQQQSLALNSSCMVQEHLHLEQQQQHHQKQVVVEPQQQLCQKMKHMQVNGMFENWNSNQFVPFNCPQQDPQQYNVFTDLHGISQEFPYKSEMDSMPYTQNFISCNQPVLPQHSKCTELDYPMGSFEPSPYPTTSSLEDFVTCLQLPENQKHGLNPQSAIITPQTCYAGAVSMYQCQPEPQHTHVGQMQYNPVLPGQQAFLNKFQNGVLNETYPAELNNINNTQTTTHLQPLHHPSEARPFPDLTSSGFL
The experiment is described as follows: DRE-Luciferase reporter high-throughput screen (AHR antagonist, VAF347-activated).

The term IC50 denotes the point on the concentration scale where inhibition reaches its midpoint. Higher therefore signals lower potency. In the case of `Fc1ccc(-c2ccc(-c3nnc4n3CCCCC4)s2)cc1` [149A], the IC50 was more than 2000 nM.
With `N#Cc1c(N)c(-c2ccc(F)cc2)cn2c1nc1ccccc12` [120B], the IC50 was in the range of 500 to 1000 nM.
In turn, `CCOC(=O)c1c(N)sc(C(=O)Nc2cccc(C(F)(F)F)c2)c1C` [20A] had an IC50 of 1000 to 2000 nM.
Consider `COc1cccc(Nc2ccc(-c3ccccc3)nn2)c1` [88A], for which the IC50 is more than 2000 nM.
The result for `COc1ccc(N2CC(c3ccc(F)cc3)=CC2=O)cc1` [152A] reads 1000 to 2000 nM.
`Cc1nn(-c2nc3ccccc3[nH]2)c2c1C(=O)CC(c1cccs1)C2` (stereo not drawn) [66B]: the IC50 was 1000 to 2000 nM.
The result for `CC(=O)Oc1ccc2c(=O)c(-c3cnn(-c4ccccc4)c3)coc2c1C` [56B] reads 500 to 1000 nM; that for `Cc1ccc(OCc2cc(=O)n3ccsc3n2)cc1C` [113B], 1000 to 2000 nM; that for `CC1CN=C(N2CCN(c3nc4c(cc3C#N)CCC4)CC2)S1` (stereo not drawn) [76A], 1000 to 2000 nM.
For `Clc1ccc(-c2noc(-c3csnn3)n2)cc1` [84B] the value was 500 to 1000 nM; for `O=S(=O)(Cc1cccc(F)c1)c1ccc2ccccc2c1` [93B], 200 to 500 nM.
In turn, `O=C(COc1ccccc1-c1nnc(-c2ccccc2)o1)NCc1ccccn1` [139A] yielded an IC50 of 1000 to 2000 nM.
The result for `c1ccc(-c2ccc(N3CCOCC3)s2)cc1` [100B] reads more than 2000 nM.
`CC(C)CCNC(=O)c1[nH]nc2c1COc1ccccc1-2` [183A] returned an IC50 of more than 2000 nM.
The molecule `COc1ccc(Nc2nn(-c3ccccc3)c3c2C(=O)CCC3)cc1` [177A] returned an IC50 of 1000 to 2000 nM.
The molecule `CS(=O)(=O)c1ccc(-c2csc(-c3cccs3)n2)cc1` [compound 61] returned an IC50 of 200 to 500 nM.
`Cc1nn(C)cc1-c1nnc(-c2cccc(C(F)(F)F)c2)o1` [138A] returned an IC50 of 1000 to 2000 nM.
In the case of `Clc1ccccc1CNc1ccc(-c2nc3ncccc3o2)cc1` [172A], the IC50 lay within 1000 to 2000 nM.
`Cc1c(COc2ccccc2C#N)cccc1[N+](=O)[O-]` [88B] came in with an IC50 of 200 to 500 nM.
For `O=C(NCCc1ccc(Cl)cc1)c1cccc2nsnc12` [107B] the value was 200 to 500 nM; for `C#CCn1cnc2c(nnn2-c2ccc(C)c(Cl)c2)c1=O` [178A], more than 2000 nM; for `CCn1cnc(-c2nc(C(=O)Nc3cccc(F)c3)c3ccccn23)c1` [48A], more than 2000 nM.
`COc1nc2ccccc2nc1CCC(=O)NC1CCCCCC1` [161A] registered an IC50 of more than 2000 nM.
For the molecule `O=C(Nc1ccc(-c2cnco2)cc1)c1ccc(F)cc1F` [3B], the 50% inhibitory concentration (IC50) was in the range of 200 to 500 nM.
`COc1c(C(=O)Nc2ccc(Cl)cc2)ccc2ccccc12` [20B] registered an IC50 of 500 to 1000 nM.
For `FC(F)(F)c1cccc(Nc2nc3ccccc3[nH]2)c1` [114A], the IC50 is 1000 to 2000 nM.
In turn, `COc1ccc(CC(=O)Nc2ccc(-c3csc(C)n3)cc2)cc1` [143A] came in with an IC50 of more than 2000 nM.
With `O=C(Nc1cc(=O)c2ccccc2o1)c1ccc(Cl)cc1` [45A], the half-inhibitory concentration (IC50) was more than 2000 nM.
For `Cc1cc(C)c2oc(-c3cccc(NC(=O)c4cccnc4)c3C)nc2c1` [15A] the value was 1000 to 2000 nM.
For `Cn1nc(N2CCN(c3ccccc3Cl)CC2)c(=O)n(C)c1=O` [42B] the value was 200 to 500 nM.
The result for `CCOc1ccc(C(=O)Nc2ccccc2C(N)=O)cc1` [7B] reads 1000 to 2000 nM; that for `CN(c1nnc(NC(=O)Nc2ccccc2C(F)(F)F)s1)C1CCCCC1` [145A], 1000 to 2000 nM; that for `Cc1nc(NC(=O)c2cc(C(C)(C)C)n[nH]2)sc1SCC#N` [34A], more than 2000 nM.
With `CC(=O)c1ccc(C(=O)Nc2ccc(C)cc2Cl)s1` [21A], the half-inhibitory concentration (IC50) fell in the range of 1000 to 2000 nM.
Molecule `Nc1cnc(C(=O)c2ccc(Cl)cc2)s1` [66A] registered an IC50 of 1000 to 2000 nM.
On to `Cc1cc([N+](=O)[O-])c(N)cc1N1CCN(c2ccccc2)CC1` [67A], for which the IC50 lay within 1000 to 2000 nM.
`CCOC(=O)c1ccc(Nc2nc(=O)c3cccnc3s2)cc1` [196A] had an IC50 of more than 2000 nM.
`c1ccc(-c2ccc(OCc3cn4ccsc4n3)cc2)cc1` [96A] yielded an IC50 of 1000 to 2000 nM.
`Cc1cc(C)c(C#N)c(SCc2cc(-c3cccs3)on2)n1` [79B] showed an IC50 of 1000 to 2000 nM.
